Experimental data: patent US11046745B2, “Peptide mimotopes of the CD3 T-cell co-receptor epsilon chain and uses thereof” (BioNTech SE, priority 2015, dated 2021)
Positions of bridges follow the written chain, without caps; N, C: chain ends. Residues, ends and D or L forms follow the SMILES beside them. *: point of attachment. Biotin = O=C1N[C@H]2[C@H](CS[C@H]2CCCCC(=O)*)N1

Legend:
[1] = system: TR66 antibody (CD3ε specific antibody, clone TR66); test: Binding analysis using biolayer interferometry (BLI), Octet Red, biotinylated peptides on streptavidin sensors; conditions: 500 nM TR66 antibody, one concentration
Protocol: FIG. 5. Comparative binding analysis of matured TR66 mimotopes aCD3-04-002 and aCD3-04-013 using biolayer interferometry (BLI) on an Octet Red system (fortéBIO). Biotinylated peptides were immobilized onto streptavidin (SA) sensors. After blocking with 1× blocking buffer and biocytin association and dissociaten rates of TR66 binding were recorded over a period of 2400 sec respectively. The antibody was used in a range of 1.5625 to 100 nM (1.5625, 3.125, 6.25, 12.5, 25, 50, 100 nM) for each analyzed peptide.
Binding analysis was performed using streptavidin (SA) sensors on an Octet Red system (fortéBIO). 5 μg/ml of biotinylated peptides were used for loading (200 μl per sensor). […] Remained biotin binding sites on coated streptavidin sensors were blocked using 100 μg/ml biocytin (Sigma-Aldrich) for 5 minutes. For binding mode analysis of different peptides 500 nM TR66 antibody was used in the association step. For detailed analysis the antibody was used in a range of 1.5625 to 100 nM (1.5625, 3.125, 6.25, 12.5, 25, 50, 100 nM) for each analyzed peptide. The following program was used: • Baseline: 1000 rpm for 180 sec. • Load: 1000 rpm for 900 sec. • Baseline: 1000 rpm for 180 sec. • Blocking: 1000 rpm for 300 sec. • Association: 1000 rpm for 1200-2400 sec. • Dissociation: 1000 rpm for 1200-2400 sec.
The peptides displaying the highest binding affinities from the peptide microarray experiments were synthesized by standard Fmoc-based solid-phase-synthesis protocols and purified (HPLC purity: >80%). The binding characteristics of each peptide were determined. In the first instance all peptides were analysed via biolayer interferometry (BLI) to get a first impression whether the respective variant has a significant binding property at all (yes/no binding, Table 2). At his point, only one TR66 concentration (500 nM) was tested. Except variants aCD3-04-010 and aCD3-04-012 all peptides show a measurable binding activity.

TR66 antibody = test: Peptide microarray incubated with TR66, fluorescently labelled secondary antibody; format: binding; conditions: cyclic peptide immobilized through C-terminus; 1.0 μg/ml TR66; data not shown
Protocol: Peptides were synthesized and printed on peptide-microarray slides essentially as described previously (Funkner, A. et al., J. Mol. Biol. 425, 1340-1362 (2013)). In brief, the peptides were synthesized using SPOT synthesis (Wenschuh, H. et al., Biopolymers 55, 188-206 (2000)) cleaved from the solid support and cyclized (50% DMSO, PBS buffer pH 7-8, RT, 16 hours). Subsequently, all peptides were chemoselectively immobilized on functionalized glass slides as described earlier (Schnatbaum, K. et al., Biotechnol. J. 9, 545-554 (2014); Funkner, A. et al., J. Mol. Biol. 425, 1340-1362 (2013)). Each peptide was deposited on the microarray in triplicates.
The microarrays were incubated with 1.0 or 0.1 μg/ml TR66 in an HS 4800 microarray processing station (Tecan) for two hours at 30° C., followed by incubation with 1.0 μg/ml fluorescently labelled secondary antibody (Alexa647 anti-human Fe antibody; Jackson Immuno Research). Washing steps were performed prior every incubation step with 0.1% Tween-20 in 1×TBS. After the final incubation step the microarrays were washed (0.05% Tween-20 in 0.1×SSC) and dried in a stream of nitrogen. Each microarray was scanned using a GenePix Autoloader 4200AL (Molecular Devices, Pixel size: […]). Signal intensities were evaluated using GenePix Pro 7.0 analysis software (Molecular Devices). For each peptide, the mean of the three triplicates was calculated. […]

[2] = biological target: TR66 antibody (CD3ε specific antibody, clone TR66); test: Binding analysis using peptide ELISA, biotinylated peptides on streptavidin plates, TR66
Protocol: FIG. 3. Binding analysis of phage derived variants using a peptide based ELISA. Biotinylated peptides were immobilized on streptavidin plates (Nunc) in a concentration of 0.75 μg/ml. After blocking 30 μg/ml TR66 or an unrelated antibody (control ab) were added and incubated for 1 h at 37° C. Binding was detected with an alkaline phosphatase conjugated goat anti-human IgG antibody (Sigma) and the chromogenic substrate PNPP (para-nitrophenyl phosphate). All reactions were performed as duplicates. SD values are presented as error bars.
For the detection of TR66 or OKT3 (Bio-X-Cell), the CD3 mimicking peptides were immobilized on streptavidin plates (Nunc) in a concentration of 0.75 μg/ml in PBS buffer for 1 hour at 37° C. Subsequently, the plate was washed three times with washing buffer (0.01% Tween-20 in PBS buffer) before it was blocked with 3% BSA in PBS overnight at 4° C. To detect TR66 or OKT3, the blocked plate was washed again three times with washing buffer followed by the addition of TR66 or OKT3 and incubation for 30 min at 37° C. After another washing step, it was incubated with an alkaline phosphatase conjugated Goat anti-human or anti-mouse IgG, Fe antibody (Jackson Immuno Research) for additional 30 min at 37° C. Finally, the plate was washed again before being incubated with 1.5 mg/ml of the substrate PNPP (para-nitrophenyl phosphate) in appropriate substrate buffer (1 M Diethanolamine, 0.05 mM MgCl2, 0.01% sodium azide, pH 9.8) for 30 min at RT in the dark. 3 M KOH was used to stop the enzymatic reaction. Absorbance was measured with a microplate reader (Infinite M200, Tecan). For dual wavelength analysis, 405 nm was chosen as measurement wavelength and 492 nm as reference wavelength. Absorbance values were calculated by subtraction of the measured values for the reference wavelength and for the measurement wavelength. Calculation of apparent KD values was done by fitting the data with Sigma Plot 10 using a two-site saturation binding model.

C[C@H](N)C(=O)N[C@H]1CSSC[C@@H](C(=O)NCC(=O)NCC(=O)NCC(=O)N[C@@H](CO)C(=O)N[C@@H](CCCCNC(=O)CCCC[C@@H]2SC[C@@H]3NC(=O)N[C@@H]32)C(=O)O)NC(=O)[C@H](CCC(N)=O)NC(=O)[C@@H]2CCCN2C(=O)[C@H](CC(=O)O)NC(=O)CNC(=O)[C@@H]2CCCN2C(=O)[C@H](CCCNC(=N)N)NC(=O)[C@H]([C@@H](C)O)NC1=O [aCD3 C7C-4, ACTRPGDPQC-GGGS-K(Bio)] (H-ACTRPGDPQCGGGSK(Biotin)-OH; disulfide 2-10)
Yes/no binding, BLI [1]: Yes | TR66 binding on peptide microarray (TR66 antibody): strong binding | Kd ([2]; TR66, mean of at least two individual measurements, two-site saturation binding model, read-out: Apparent KD, ELISA): 370 nM | TR66 binding after chemical synthesis, ELISA-based binding analysis (FIG. 3) ([2]; peptide 0.75 μg/ml, 30 μg/ml TR66): could be verified
